# Measured values published in patent EP0603240B1, “SAFENING HERBICIDAL PYRAZOLYLSULFONYLUREAS” (priority 1991, dated 1993).
# Tests used:
# [1] = test system: corn; test: Example 6, Procedure II: Herbicide No. 1 + alachlor (No. 7) with antidotes; assay type: in vivo; settings: Herbicide No.7 4.48 kg/ha alone
# Experimental: (§1) Containers were filled and compacted with a fumigated silt loam top soil to a depth of about 1.3 cm from the top of the container. A first container was designated as an untreated control, a second container was designated as a herbicide control, and a third container was designated as a herbicide + antidote test container. Each of the containers was seeded with a crop species. A measured amount of herbicide dispersed or dissolved in acetone was applied to a measured quantity of soil. To this same quantity of soil treated with herbicide, there was added a measured amount of antidote dispersed or dissolved in acetone. The quantity of soil treated with the herbicide and antidote was thoroughly mixed to incorporate the herbicide and antidote in the soil uniformly. The seed bed in the third container of soil was covered with the soil treated with the herbicide and antidote and the container was leveled. For each test series, the seed beds of the first and second containers were likewise covered by soil layers. the cover layer of the first container was not treated with herbicide or antidote.
# (§2) The containers were then placed on a bench in a greenhouse and sub-irrigated as required for the duration of the test. […] Plant response is measured in terms of percent injury. Antidote efficacy is indicated as the difference in plant injury by the herbicide(s) without the antidote and with the antidote.
# (§3) This procedure is the same as Procedure I, but modified in the manner that after incorporation of the chemicals (herbicide and antidote) the containers with the covered seedbed were treated with an initial overhead irrigation equivalent to 0.6 cm rainfall, then subsequently sub-irrigated as required on greenhouse benches.
# (§4) This example was designed to investigate the antidotal efficacy of a plurality of antidotal compounds against a composition comprising Herbicide No. 1 in combination with Herbicide No. 7 (alachlor). The antidotal compounds used herein were Nos. 1, 2, 7, 13 and 15.
# (§5) In this example, Procedure II described above was followed. The data from the tests in this example is shown in Table 6 and represents averages of duplicate replications.
# [2] = test system: barnyardgrass (Echinochloa crusgalli); test: as above; assay type: in vivo; settings: Herbicide No.7 4.48 kg/ha alone
# Experimental: as §1, §2, §3
# (§6) In the series of greenhouse tests described below, for routine screening purposes the herbicide/antidote compositions were tested in crop/weed combinations involving corn as the crop and either or both of the weeds barnyardgrass (Echinochloa crusgalli), a monocotyledonous weed, and velvetleaf (Abutilon theophrasti), a dicotyledonous weed. In the tables below, these weeds are indicated by the symbols "BYG" and "VL", respectively.
# as §4, §5
# [3] = test system: velvetleaf (Abutilon theophrasti); test: as above; assay type: in vivo; settings: Herbicide No.7 4.48 kg/ha alone
# Experimental: as §1, §2, §3, §6, §4, §5
# [4] = test system: corn; test: Example 8, Procedure II: Herbicide No. 1 + butachlor (No. 9) with antidotes; assay type: in vivo; settings: Herbicide No.9 2.24 kg/ha alone
# Experimental: as §1, §2, §3
# (§7) In this test, the efficacy of the same five antidotes used in Examples 6 and 7 was investigated in compositions comprising Herbicide No. 1 and as a co-herbicide, butachlor (Herbicide No. 9), active ingredient in MACHETE® herbicide, a leading commercial rice herbicide. The test procedure used in this example was the same as that in Examples 6 and 7.
# [5] = test system: barnyardgrass (Echinochloa crusgalli); test: as above; assay type: in vivo; settings: Herbicide No.9 2.24 kg/ha alone
# Experimental: as §1, §2, §3, §6, §7
# [6] = test system: velvetleaf (Abutilon theophrasti); test: as above; assay type: in vivo; settings: Herbicide No.9 2.24 kg/ha alone
# Experimental: as §1, §2, §3, §6, §7
# [7] = test system: corn; test: Example 7, Procedure II: Herbicide No. 1 + metolachlor (No. 12) with antidotes; assay type: in vivo; settings: Herbicide No.12 3.36 kg/ha alone
# Experimental: as §1, §2, §3, §5
# (§8) The tests in this example followed the same procedure and antidotes used in Example 6. However, Herbicide No. 12 (metolachlor) was used as the co-herbicide with Herbicide No. 1.
# [8] = test system: barnyardgrass (Echinochloa crusgalli); test: as above; assay type: in vivo; settings: Herbicide No.12 3.36 kg/ha alone
# Experimental: as §1, §2, §3, §6, §5, §8
# [9] = test system: velvetleaf (Abutilon theophrasti); test: as above; assay type: in vivo; settings: Herbicide No.12 3.36 kg/ha alone
# Experimental: as §1, §2, §3, §6, §5, §8
# [10] = test system: corn; test: Example 20, Procedure II: Herbicide No. 1 + EPTC or ERADICANE EXTRA with Antidote Nos. 5 and 15; assay type: in vivo
# Experimental: as §1, §2, §3
# (§9) This example describes experiments designed to test two generally efficacious antidotal compounds, i.e., Antidote Nos. 5 and 15, against the herbicidal action of the sulfonylurea compound, Herbicide No. 1, and the commercial herbicides EPTC (Herbicide No. 4) and ERADICANE® EXTRA (EPTC + R-29148, Antidote No. 5). Procedure II above was used in conducting these experiments. Formulations of EPTC and ERADICANE EXTRA were applied onto soil cover layers (to be applied over seed beds), followed by sequential pipetting of Herbicide No. 1 and Antidote No. 15. The soil was mixed to homogeneity and spread over the seed beds followed by 0.6 cm of overhead irrigation.
# [11] = test system: velvetleaf (Abutilon theophrasti); test: as above; assay type: in vivo
# Experimental: as §1, §2, §3, §6, §9
# [12] = test system: corn; test: Example 3, Procedure I: antidotes against Herbicide No. 1; assay type: in vivo
# Experimental: as §1, §2
# (§10) This example details the results of tests with Antidote Nos. 12, 15 and 16 to safen Herbicide No. 1 over application rates ranging from 4.48 kg/ha down to 0.56 kg/ha, in corn in the presence of barnyardgrass. Procedure I described above was used in these tests.
# [13] = test system: barnyardgrass (Echinochloa crusgalli); test: as above; assay type: in vivo
# Experimental: as §1, §2, §6, §10
# [14] = test system: corn; test: Example 25, greenhouse preemergence test: Antidote Nos. 1 and 2 against Herbicide Nos. 1-3; assay type: in vivo, Corn (Pioneer 3424 variety); settings: Preemergence, no antidote
# Experimental: The chemicals were tested in both preemergence and post-emergence modes of application. The herbicides were prepared and applied as wettable powders; dichlormid was applied as an emulsifiable concentrate, while the naphthalic anhydride was applied as a coating on the corn seed prior to planting.
# Test data from the preemergence tests are shown in Table 25A and from the post-emergence tests in Table 25B. In the tables, the concentration of chemicals is shown in terms of active ingredient in grams per hectare (G/ha); concentrations of the naphthalic anhydride were not measured per se, but were present as in conventional, normally-coated applications. Corn injury is shown in terms of percent inhibition of growth.
# [15] = Herbicide No. 4 2.24 kg/ha alone
# [16] = Herbicide No. 4 4.48 kg/ha alone
# [17] = Herbicide No. 4 6.72 kg/ha alone
# [18] = Herb. No. 1 0.56 kg/ha + antidote 0.56 kg/ha
# [19] = Herb. No. 1 0.56 kg/ha + antidote 2.24 kg/ha
# [20] = Herb. No. 1 0.56 kg/ha + antidote 8.96 kg/ha
# [21] = Herb. No. 1 1.12 kg/ha + antidote 0.56 kg/ha
# [22] = Herb. No. 1 1.12 kg/ha + antidote 2.24 kg/ha
# [23] = Herb. No. 1 1.12 kg/ha + antidote 8.96 kg/ha
# [24] = Herb. No. 1 2.24 kg/ha + antidote 0.56 kg/ha
# [25] = Herb. No. 1 2.24 kg/ha + antidote 2.24 kg/ha
# [26] = Herb. No. 1 2.24 kg/ha + antidote 8.96 kg/ha
# [27] = Herb. No. 1 4.48 kg/ha + antidote 0.56 kg/ha
# [28] = Herb. No. 1 4.48 kg/ha + antidote 2.24 kg/ha
# [29] = Herb. No. 1 4.48 kg/ha + antidote 8.96 kg/ha
# [30] = antidote 8.96 kg/ha alone, no herbicide
molecule,measurement,setting,value
"CCc1cccc(CC)c1N(COC)C(=O)CCl [Herbicide No. 7, 2-Chloro-2',6'-diethyl-N-(methoxymethyl)acetanilide, reference compound]",% Injury Corn,[1],10%
same,% Injury BYG,[2],100%
same,% Injury VL,[3],25%
"CCCCOCN(C(=O)CCl)c1c(CC)cccc1CC [Herbicide No. 9, 2-Chloro-2',6'-diethyl-N-(butoxymethyl)acetanilide, reference compound]",% Injury Corn,[4],5%
same,% Injury BYG,[5],99%
same,% Injury VL,[6],25%
"CCc1cccc(C)c1N(C(=O)CCl)C(C)COC (centres unmarked) [Herbicide No. 12, 2-Chloro-N-(2-methoxy-1-methylethyl)-6'-ethyl-o-acetotoluidide, reference compound]",% Injury Corn,[7],0%
same,% Injury BYG,[8],100%
same,% Injury VL,[9],20%
CCCN(CCC)C(=O)SCC [No. 4],% Injury Corn,[10]; [15],0%
same,% Injury Corn,[10]; [16],0%
same,% Injury Corn,[10]; [17],10%
same,% Injury VL,[11]; [15],0%
same,% Injury VL,[11]; [16],0%
same,% Injury VL,[11]; [17],18%
CC1(C)OC(c2cccs2)CN1C(=O)C(Cl)Cl (centres unmarked) [compound 11],% Injury Corn,[12]; [18],15%
same,% Injury Corn,[12]; [19],0%
same,% Injury Corn,[12]; [20],0%
same,% Injury Corn,[12]; [21],5%
same,% Injury Corn,[12]; [22],0%
same,% Injury Corn,[12]; [23],0%
same,% Injury Corn,[12]; [24],30%
same,% Injury Corn,[12]; [25],0%
same,% Injury Corn,[12]; [26],0%
same,% Injury Corn,[12]; [27],50%
same,% Injury Corn,[12]; [28],30%
same,% Injury Corn,[12]; [29],5%
same,% Injury Corn,[12]; [30],15%
same,% Injury BYG,[13]; [18],70%
same,% Injury BYG,[13]; [19],20%
same,% Injury BYG,[13]; [20],0%
same,% Injury BYG,[13]; [21],80%
same,% Injury BYG,[13]; [22],15%
same,% Injury BYG,[13]; [23],0%
same,% Injury BYG,[13]; [24],75%
same,% Injury BYG,[13]; [25],30%
same,% Injury BYG,[13]; [26],0%
same,% Injury BYG,[13]; [27],80%
same,% Injury BYG,[13]; [28],80%
same,% Injury BYG,[13]; [29],50%
same,% Injury BYG,[13]; [30],0%
"N-[(4,6-dimethoxypyridin-2-yl)aminocarbonyl]-3-chloro-4-ethoxycarbonyl-1-methylpyrazole-5-sulfonamide [Herbicide No. 2]",% Inhibition Corn,[14]; herbicide alone 0.25 G/ha,21.7%
same,% Inhibition Corn,[14]; herbicide alone 0.74 G/ha,36.4%
same,% Inhibition Corn,[14]; herbicide alone 2.5 G/ha,42.7%
